Tests used:
Type in all cases: in vivo, human
[1] = tested on: patients with excessive sweating; assay: Inventor's data and observations in patients with excessive sweating
Excerpt: Based on data and observations that the inventor has, they have found topiramate (Topamax®) to have the following, previously undiscovered, beneficial pharmacological effects for patients with excessive sweating: The patient population in which the inventor has seen these benefits included both men and women ranging in age from 25 to 79 years. […] Optionally, the topiramate can be taken as a low dose on an as-needed basis to treat these sweating episodes. […] The inventor became convinced that topiramate was effective in the treatment of excessive sweating. They observed the improvement in patients whose sweating was induced by various antidepressant medications. Some experienced such sweating severity that they had to change their bedding at night as well as their night clothes. Others found it too embarrassing in the day time to the extent that it interfered with their work and social life; and some became reluctant to take their required antidepressant.

[2] = tested on: patients with excessive sweating (drug-induced hyperhidrosis); assay: Clinical examples: single patient case reports of excessive sweating treated with topiramate
[3] = tested on: patients who complained of excessive sweating; assay: Open label study of 26 patients with excessive sweating treated with topiramate; conditions: 26 patients (18 females, 8 males), total daily dose 25 mg to 100 mg, subjective assessment and report, all on one or more antidepressant
Protocol: In an open label study of 26 patients (18 females and 8 males) who complained of excessive sweating were treated with topiramate on the basis of off label prescribing. The patients were informed of the off-label nature of the treatment and they were counseled about the potential side effects of topiramate. The total daily dose ranged from 25 mg to 100 mg. Over 95% of patients experienced a significant response based on their subjective assessment and report. Patients were all adults with an age range from 25 yrs to 79 yrs. All the patients were on one or more antidepressant including various SSRI's with or without Bupropion. However, several of the patients had experienced excessive sweating for other reasons and before the use of antidepressants, even though adding the antidepressant exacerbated their underlying hyperhidrosis. Some of the underlying causes included perimenopause/menopause as well as primary or idiopathic hyperhidrosis. some had identified vulnerability from before, only made worse by antidepressants.

[4] = men and women aged 25 to 79 years
[5] = patients with excessive sweating

CC1(C)O[C@@H]2[C@@H](CO[C@@]3(COS(N)(=O)=O)OC(C)(C)O[C@@H]23)O1 [topiramate]
effectiveness against drug-induced hyperhidrosis at low dose ([1]; doses as low as 12.5 mg per day in an adult): highly effective | incidence of side effects at low dosage ([1]; low dosage): without significant incidence of those side effects | benefit in the patient population [1, 4]: all benefited | side effects in the patient population [1, 4]: minimal side effects | effect on excessive sweating caused by antidepressants and similar medications [1, 5]: Substantial improvement | effect on excessive sweating caused by primary or idiopathic hyperhidrosis [1, 5]: Substantial improvement | effect on excessive sweating from other miscellaneous causes of hyperhidrosis [1, 5]: Substantial improvement | effect on excessive sweating, idiopathic or drug-induced [1, 5]: Substantial improvement | effectiveness when used on an as needed basis [1, 5]: effective | excessive sweating, patient report ([2]; Example 1, a person, Cymbalta 60 mg daily, retrial of topiramate 25 mg twice daily): much better | excessive sweating, patient report ([2]; Example 1, a person, Cymbalta 80 mg daily, topiramate raised from 50 mg daily to 50 mg twice daily): after initial improvement with the topiramate increase, the excessive sweating has recurred | excessive sweating, patient report ([2]; Example 2, a person, Cymbalta and Wellbutrin XL, topiramate 25 mg daily): much better | adverse effects, patient report ([2]; Example 2, a person, topiramate 25 mg per day): no adverse effects | excessive sweating, patient report ([2]; Example 3, a person, Effexor XR 300 mg daily, topiramate 50 mg daily): much improvement | adverse effects, patient report ([2]; Example 3, a person, topiramate 50 mg daily): no adverse effects | excessive sweating, patient report ([2]; Example 4, a person, Zoloft, topiramate 25 mg twice daily): improved | effectiveness when taken on an as needed basis ([2]; Example 4, a person, Zoloft, topiramate as needed): effective | adverse effects, patient report ([2]; Example 4, a person, topiramate): no adverse effects | excessive sweating, patient report ([2]; Example 5, a person, Wellbutrin XL, Cymbalta, Pristiq, topiramate 50 mg daily): suboptimal improvement | excessive sweating, patient report ([2]; Example 5, a person, topiramate 50 mg twice daily, improvement reported for five months thereafter): satisfactory | excessive perspiration, patient report ([2]; Example 6, a person, Wellbutrin XL and Cymbalta, topiramate 25 mg daily, over eighteen months): satisfactory resolution | adverse effects, patient report ([2]; Example 6, a person, topiramate 25 mg daily, over eighteen months): without any adverse effects | excessive sweating, patient report ([2]; Example 7, a person, Aricept and Cymbalta 30 mg, topiramate 25 mg then 50 mg at bedtime): complete resolution | adverse effects, patient report ([2]; Example 7, a person, topiramate 25 mg then 50 mg at bedtime): no adverse effects | patients who experienced a significant response [3]: Over 95%

From patent US20100317731A1, “Hyperhidrosis treatment” (priority 2009, published 2010)
